Data taken from patent US7365194B2 (Pondicherry University and Department of Biotechnology, priority 2004, dated 2008).

Assays:
phytopathogens = conditions: in vitro, complete ionization to an inactive carboxylate ion; cited from earlier work
cell lines = test: MTT cytotoxicity assay; assay type: cell-based; set-up: dose or concentration left out as unconfirmed; conditions: average of three replicates
Experimental: (§1) At the end of incubation, 20 μL MTT (5 mg/mL) was added and cells were incubated at 37° C. After 4 hr, MTT was removed and 100 μL of DMSO was added. Cell viability was determined by measuring the absorbance at a test wavelength of 570 nm.
as §1, with “Cytotoxycity of dimer of phenazine-1-carboxylic acid natural product against cell lines was determined by MTT assay. […] At” for “At”

[1] = test system: plant, animal and human pathogens; test: Antimicrobial activity in acidic and alkaline pH; assay type: cell-based; conditions: in vitro
Experimental: (§2) Assay plates were incubated at 28° C. for 3 days to observe the zone of growth-inhibition of test microorganisms.
(§3) Test compound was dissolved in chloroform at various concentrations, separately loaded on to sterile filter paper discs (Whatman No.1, 6 mm diameter) and placed on the surface of agar plates pre-inoculated with the test pathogens. Assay plates were incubated at 27° C. for 72 hr for fungi and 27° C. to about 37° C. for 48 hr for bacteria.

Staphylococcus aureus = test: Antimicrobial MIC, agar/disc diffusion; assay type: cell-based; conditions: 27° C. to about 37° C. for 48 hr
Experimental: as §2, §3

Salmonella typhimurium = test: Antimicrobial MIC, agar/disc diffusion; assay type: cell-based; conditions: 27° C. to about 37° C. for 48 hr
Experimental: as §2, §3

Escherichia coli = test: Antimicrobial MIC, agar/disc diffusion; assay type: cell-based; conditions: 27° C. to about 37° C. for 48 hr
Experimental: as §2, §3

[2] = test system: Colletotrichum gleosporoides; test: Antimicrobial MIC, agar/disc diffusion; assay type: cell-based; conditions: 27° C. for 72 hr
Experimental: as §2, §3

Macrophomina phaeseolina = test: Antimicrobial MIC, agar/disc diffusion; assay type: cell-based; conditions: 27° C. for 72 hr
Experimental: as §2, §3

C. capsici = test: Antimicrobial MIC, agar/disc diffusion; assay type: cell-based; conditions: 27° C. for 72 hr
Experimental: as §2, §3

Pseudomonas aeruginosa = test: Antimicrobial MIC, agar/disc diffusion; assay type: cell-based; conditions: 27° C. to about 37° C. for 48 hr
Experimental: as §2, §3

Rhizoctonia solani = test: Antimicrobial MIC, agar/disc diffusion; assay type: cell-based; conditions: 27° C. for 72 hr
Experimental: as §2, §3

Sarocladium oryzae = test: Antimicrobial MIC, agar/disc diffusion; assay type: cell-based; conditions: 27° C. for 72 hr
Experimental: as §2, §3

[3] = test system: Fusarium oxysporum sub sp. cubense; test: Antimicrobial MIC, agar/disc diffusion; assay type: cell-based; conditions: 27° C. for 72 hr
Experimental: as §2, §3

Botrytis cinera = test: Antimicrobial MIC, agar/disc diffusion; assay type: cell-based; conditions: 27° C. for 72 hr
Experimental: as §2, §3

C. falcatum = test: Antimicrobial MIC, agar/disc diffusion; assay type: cell-based; conditions: 27° C. for 72 hr
Experimental: as §2, §3

Row | Compound | effectiveness in alkaline pH (phytopathogens) | OD @ 570 nm (cell lines; concentration 1, 24 hr at 37° C.) | OD @ 570 nm (cell lines; concentration 10, 24 hr at 37° C.) | OD @ 570 nm (cell lines; concentration 25, 24 hr at 37° C.) | OD @ 570 nm (cell lines; concentration 50, 24 hr at 37° C.) | antimicrobial activity [1] | MIC (Staphylococcus aureus) | MIC (Salmonella typhimurium) | MIC (Escherichia coli) | MIC [2] | MIC (Macrophomina phaeseolina) | MIC (C. capsici) | MIC (Pseudomonas aeruginosa) | MIC (Rhizoctonia solani) | MIC (Sarocladium oryzae) | MIC [3] | MIC (Botrytis cinera) | MIC (C. falcatum)
1 | O=C(O)c1cccc2nc3ccccc3nc12 [PCA, phenazine 1-carboxylic acid] | ineffective |  |  |  |  |  |  |  |  |  |  |  |  |  |  |  |  | 
2 | dimer of phenazine-1-carboxylic acid |  | 0.531 | 0.472 | 0.366 | 0.285 | showed antimicrobial activity | >120 mg/L | >120 mg/L | >100 mg/L | 7 mg/L | 12 mg/L | 7 mg/L | >90 mg/L | 2 mg/L | 3 mg/L | 7 mg/L | 14 mg/L | 5 mg/L
